Laboratory results as given in ChEMBL document CHEMBL5614400, “Emerging therapeutics: The imidazo[1,2-b]pyridazine scaffold as a novel drug candidate for eumycetoma, a neglected tropical disease” (Eur J Med Chem, 2024).
≈ marks a conversion by molar mass, not a printed value. Calls of active or inactive are those of the source. The calls are words filed in the database; no cut-off is given here.

Key:
Madurella mycetomatis [1] = assay: Antifungal activity against Madurella mycetomatis MM55 at 100 uM by XTT assay; type: functional, organism-based
Madurella mycetomatis [2] = assay: Antifungal activity against Madurella mycetomatis MM55 at 25 uM by XTT assay; type: functional, organism-based
Madurella mycetomatis [3] = assay: Antifungal activity against Madurella mycetomatis MM55 by XTT assay; type: functional, organism-based
Madurella mycetomatis [4] = assay: Antifungal activity against Madurella mycetomatis Peru72012 by XTT assay; type: functional
Madurella mycetomatis [5] = assay: Antifungal activity against Madurella mycetomatis MM50 by XTT assay; type: functional
[6] = Selectivity index, ratio of IC50 for mouse NIH3T3 cells to IC50 for Madurella mycetomatis MM55; type: toxicity; settings: read-out: Ratio IC50
Madurella mycetomatis [7] = assay: Antifungal activity against Madurella mycetomatis AL1 by XTT assay; type: functional
Madurella mycetomatis [8] = assay: Antifungal activity against Madurella mycetomatis SO1 by XTT assay; type: functional
Madurella mycetomatis [9] = assay: Antifungal activity against Madurella mycetomatis P1 by XTT assay; type: functional
Madurella mycetomatis [10] = assay: Antifungal activity against Madurella mycetomatis I3 by XTT assay; type: functional
Madurella mycetomatis [11] = assay: Antifungal activity against Madurella mycetomatis CBS247.48 by XTT assay; type: functional
Madurella mycetomatis [12] = assay: Antifungal activity against Madurella mycetomatis I11 by XTT assay; type: functional
Madurella mycetomatis [13] = assay: Antifungal activity against Madurella mycetomatis I1 by XTT assay; type: functional
[14] = Cytotoxicity against mouse NIH3T3 cells incubated for 5 days by MTT assay; type: toxicity, cell-based

SMILES: CN1CCN(c2cc(-c3ccoc3)c3nc(-c4ccc(F)cc4)cn3n2)CC1
- Activity (Madurella mycetomatis [1]): Active
- Activity (Madurella mycetomatis [2]): inactive

SMILES: CN1CCN(c2cc(-c3ccsc3)c3nc(-c4ccc(F)cc4)cn3n2)CC1 [listing 1 of 2 here]
- IC50 (Madurella mycetomatis [3]; Madurella mycetomatis, MM55): 5 µM

SMILES: CN1CCN(c2cc(-c3ccc(N)nc3)c3nc(-c4ccccc4F)cn3n2)CC1
- IC50 (Madurella mycetomatis [3]; Madurella mycetomatis, MM55): 9.8 µM

SMILES: COc1ccccc1-c1cn2nc(N3CCN(C)CC3)cc(-c3cccc4[nH]ccc34)c2n1
- IC50 (Madurella mycetomatis [3]; Madurella mycetomatis, MM55): > 16 µM

SMILES: CN1CCN(c2cc(-c3ccnn3C)c3nc(-c4ccc(F)cc4)cn3n2)CC1
- Activity (Madurella mycetomatis [1]): Active
- Activity (Madurella mycetomatis [2]): inactive

SMILES: CC(C)CCn1cc(-c2cc(N3CCN(C)CC3)nn3cc(-c4ccc(F)cc4)nc23)cn1
- IC50 (Madurella mycetomatis [3]; Madurella mycetomatis, MM55): 10.3 µM

SMILES: CN1CCN(c2cc(-c3ccsc3)c3nc(-c4ccccc4F)cn3n2)CC1
- MIC (Madurella mycetomatis [4]): 16 µM (≈ 6.3 µg/mL)
- MIC (Madurella mycetomatis [5]): 8 µM (≈ 3.15 µg/mL)
- selectivity ratio [6]: 3.7
- MIC (Madurella mycetomatis [7]): 8 µM (≈ 3.15 µg/mL)
- MIC (Madurella mycetomatis [8]): 8 µM (≈ 3.15 µg/mL)
- MIC (Madurella mycetomatis [9]): 8 µM (≈ 3.15 µg/mL)
- MIC (Madurella mycetomatis [10]): 8 µM (≈ 3.15 µg/mL)
- MIC (Madurella mycetomatis [11]): 8 µM (≈ 3.15 µg/mL)
- MIC (Madurella mycetomatis [12]): 8 µM (≈ 3.15 µg/mL)
- MIC (Madurella mycetomatis [13]): 8 µM (≈ 3.15 µg/mL)
- IC50 at 5 days [14]: 14.6 µM
- IC50 (Madurella mycetomatis [3]; Madurella mycetomatis, MM55): 1.9 µM
- MIC (Madurella mycetomatis [3]; Madurella mycetomatis, MM55): 8 µM (≈ 3.15 µg/mL)

SMILES: CN1CCN(c2cc(-c3ccsc3)c3nc(-c4ccc(F)cc4)cn3n2)CC1 [listing 2 of 2 here]
- IC50 (Madurella mycetomatis [3]): 5.5 µM

SMILES: OCCN1CCN(c2cc(-c3ccsc3)c3nc(-c4cccc(F)c4)cn3n2)CC1
- MIC (Madurella mycetomatis [4]): 8 µM (≈ 3.39 µg/mL)
- MIC (Madurella mycetomatis [5]): 8 µM (≈ 3.39 µg/mL)
- selectivity ratio [6]: 8.2
- MIC (Madurella mycetomatis [7]): 8 µM (≈ 3.39 µg/mL)
- MIC (Madurella mycetomatis [8]): 8 µM (≈ 3.39 µg/mL)
- MIC (Madurella mycetomatis [9]): 4 µM (≈ 1.69 µg/mL)
- MIC (Madurella mycetomatis [10]): 8 µM (≈ 3.39 µg/mL)
- MIC (Madurella mycetomatis [11]): 4 µM (≈ 1.69 µg/mL)
- MIC (Madurella mycetomatis [12]): 4 µM (≈ 1.69 µg/mL)
- MIC (Madurella mycetomatis [13]): 8 µM (≈ 3.39 µg/mL)
- IC50 at 5 days [14]: 10.7 µM
- IC50 (Madurella mycetomatis [3]; Madurella mycetomatis, MM55): 0.9 µM
- MIC (Madurella mycetomatis [3]; Madurella mycetomatis, MM55): 4 µM (≈ 1.69 µg/mL)

SMILES: CN1CCN(c2cc(-c3cnn(C)c3)c3nc(-c4ccc(F)cc4)cn3n2)CC1 [listing 1 of 2 here]
- MIC (Madurella mycetomatis [4]): > 16 µM
- MIC (Madurella mycetomatis [5]): > 16 µM
- selectivity ratio [6]: 3.1
- MIC (Madurella mycetomatis [7]): > 16 µM
- MIC (Madurella mycetomatis [8]): > 16 µM
- MIC (Madurella mycetomatis [9]): 16 µM (≈ 6.26 µg/mL)
- MIC (Madurella mycetomatis [10]): > 16 µM
- MIC (Madurella mycetomatis [11]): 16 µM (≈ 6.26 µg/mL)
- MIC (Madurella mycetomatis [12]): > 16 µM
- MIC (Madurella mycetomatis [13]): 16 µM (≈ 6.26 µg/mL)
- IC50 at 5 days [14]: 9 µM
- IC50 (Madurella mycetomatis [3]): 3.8 µM
- MIC (Madurella mycetomatis [3]; Madurella mycetomatis, MM55): > 16 µM

SMILES: CN1CCN(c2cc(-c3ccccc3)c3nc(-c4ccc(F)cc4)cn3n2)CC1
- Activity (Madurella mycetomatis [1]): inactive
- Activity (Madurella mycetomatis [2]): inactive

SMILES: OCCN1CCN(c2cc(-c3ccsc3)c3nc(-c4ccccc4)cn3n2)CC1
- MIC (Madurella mycetomatis [4]): 8 µM (≈ 3.24 µg/mL)
- MIC (Madurella mycetomatis [5]): 8 µM (≈ 3.24 µg/mL)
- selectivity ratio [6]: 3.4
- MIC (Madurella mycetomatis [7]): 8 µM (≈ 3.24 µg/mL)
- MIC (Madurella mycetomatis [8]): 16 µM (≈ 6.49 µg/mL)
- MIC (Madurella mycetomatis [9]): 8 µM (≈ 3.24 µg/mL)
- MIC (Madurella mycetomatis [10]): 8 µM (≈ 3.24 µg/mL)
- MIC (Madurella mycetomatis [11]): 8 µM (≈ 3.24 µg/mL)
- MIC (Madurella mycetomatis [12]): 8 µM (≈ 3.24 µg/mL)
- MIC (Madurella mycetomatis [13]): 8 µM (≈ 3.24 µg/mL)
- IC50 at 5 days [14]: 13.1 µM
- IC50 (Madurella mycetomatis [3]; Madurella mycetomatis, MM55): 2.6 µM
- MIC (Madurella mycetomatis [3]; Madurella mycetomatis, MM55): 4 µM (≈ 1.62 µg/mL)

SMILES: COc1ccccc1-c1cn2nc(N3CCN(C)CC3)cc(-c3ccsc3)c2n1
- IC50 (Madurella mycetomatis [3]; Madurella mycetomatis, MM55): 5.8 µM

SMILES: CN1CCN(c2cc(-c3cccs3)c3nc(-c4ccc(F)cc4)cn3n2)CC1
- IC50 (Madurella mycetomatis [3]; Madurella mycetomatis, MM55): 8.5 µM

SMILES: CN1CCN(c2cc(-c3cccc4[nH]ccc34)c3nc(-c4ccc(F)cc4)cn3n2)CC1
- Activity (Madurella mycetomatis [1]): Active
- Activity (Madurella mycetomatis [2]): Active

SMILES: CN1CCN(c2cc(-c3cnn(C)c3)c3nc(-c4ccc(F)cc4)cn3n2)CC1 [listing 2 of 2 here]
- IC50 (Madurella mycetomatis [3]): 9.5 µM

SMILES: CN1CCN(c2cc(-c3ccsc3)c3nc(-c4ccccc4)cn3n2)CC1
- MIC (Madurella mycetomatis [4]): 8 µM (≈ 3 µg/mL)
- MIC (Madurella mycetomatis [5]): 8 µM (≈ 3 µg/mL)
- selectivity ratio [6]: 5.1
- MIC (Madurella mycetomatis [7]): 8 µM (≈ 3 µg/mL)
- MIC (Madurella mycetomatis [8]): 8 µM (≈ 3 µg/mL)
- MIC (Madurella mycetomatis [9]): 8 µM (≈ 3 µg/mL)
- MIC (Madurella mycetomatis [10]): 8 µM (≈ 3 µg/mL)
- MIC (Madurella mycetomatis [11]): 8 µM (≈ 3 µg/mL)
- MIC (Madurella mycetomatis [12]): 4 µM (≈ 1.5 µg/mL)
- MIC (Madurella mycetomatis [13]): 8 µM (≈ 3 µg/mL)
- IC50 at 5 days [14]: 10.2 µM
- IC50 (Madurella mycetomatis [3]; Madurella mycetomatis, MM55): 3.5 µM
- MIC (Madurella mycetomatis [3]; Madurella mycetomatis, MM55): 8 µM (≈ 3 µg/mL)

SMILES: CN1CCN(c2cc(-c3cccc4[nH]ccc34)c3nc(-c4ccccc4)cn3n2)CC1
- IC50 (Madurella mycetomatis [3]; Madurella mycetomatis, MM55): 8.3 µM

SMILES: CN1CCN(c2cc(-c3cccc4[nH]ccc34)c3nc(-c4ccccc4F)cn3n2)CC1
- IC50 (Madurella mycetomatis [3]; Madurella mycetomatis, MM55): 9.2 µM

SMILES: CN1CCN(c2cc(-c3cnc(N4CCN(C)CC4)nc3)c3nc(-c4ccc(F)cc4)cn3n2)CC1
- MIC (Madurella mycetomatis [4]): 4 µM (≈ 1.95 µg/mL)
- MIC (Madurella mycetomatis [5]): 4 µM (≈ 1.95 µg/mL)
- selectivity ratio [6]: 6.8
- MIC (Madurella mycetomatis [7]): 4 µM (≈ 1.95 µg/mL)
- MIC (Madurella mycetomatis [8]): 4 µM (≈ 1.95 µg/mL)
- MIC (Madurella mycetomatis [9]): 4 µM (≈ 1.95 µg/mL)
- MIC (Madurella mycetomatis [10]): 8 µM (≈ 3.9 µg/mL)
- MIC (Madurella mycetomatis [11]): 4 µM (≈ 1.95 µg/mL)
- MIC (Madurella mycetomatis [12]): 8 µM (≈ 3.9 µg/mL)
- MIC (Madurella mycetomatis [13]): 4 µM (≈ 1.95 µg/mL)
- IC50 at 5 days [14]: 12.3 µM
- IC50 (Madurella mycetomatis [3]; Madurella mycetomatis, MM55): 2.9 µM
- MIC (Madurella mycetomatis [3]; Madurella mycetomatis, MM55): 8 µM (≈ 3.9 µg/mL)
